# US11279733B2, “Peptide antibiotics” (priority 2017, dated 2022)
# Like-named read-outs stand apart in the source and are kept apart here. Positions of bridges follow the written chain, without caps; N, C: chain ends. Non-standard residues stand in square brackets, D forms with d. Residues, ends and D or L forms follow the SMILES beside them. *: point of attachment. Decanoyl(3R-OH) = CCCCCCC[C@@H](O)CC(=O)*; X1 = CCCCCCCN1CCC(C(=O)*)CC1; X7 = CCC(C)CCCCC(O)CC(=O)*; dDab = NCC[C@@H](N)C(=O)O; X2 = CCC(C)CCC(O)CC(=O)*; Dab = NCC[C@H](N)C(=O)O
# Experiments:
# in vitro [1] = conditions: human
# Method in brief: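 Viability is measured by resazurin reduction (5 μM, 2 h, 37 °C) after cells seeded at 4000 per well are treated with compound for 24 h.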
# [2] = system: K. pneumoniae ATCC 700603, MDR
# Method in brief: (§1)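 Mid-log cultures grown in Mueller Hinton broth at 37° C were tested by 2-fold broth microdilution at 5×10^5 CFU/mL final. Compounds were dissolved in water and tested over a final range of 32 to 0.015 μg/mL.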
# K. pneumoniae ATCC 13883 = system: K. pneumoniae ATCC 13883
# Method in brief: as §1
# E. coli ATCC 25922 = system: E. coli ATCC 25922
# Method in brief: as §1
# [3] = system: K. pneumoniae ATCC BAA-2146, NDM-1 pos
# Method in brief: as §1
# [4] = system: K. pneumoniae GN_102 PmxR
# Method in brief: as §1
# [5] = system: S. aureus ATCC 25923, MSSA
# Method in brief: as §1
# [6] = system: P. aeruginosa GN_043, PmxR
# Method in brief: as §1
# P. aeruginosa ATCC 27853 = system: P. aeruginosa ATCC 27853
# Method in brief: as §1
# A. baumannii GN_093 PmxR = system: A. baumannii GN_093 PmxR
# Method in brief: as §1
# [7] = system: P. aeruginosa GN_105, PmxR
# Method in brief: as §1
# [8] = system: K. pneumoniae GN_106, PmxR
# Method in brief: as §1
# A. baumannii ATCC 19606 = system: A. baumannii ATCC 19606
# Method in brief: as §1
# in vitro [9] = conditions: human; remark: listed apart in the source
# Method in brief: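 HK2 cells were seeded at 2000 per well in DMEM/F12 with 10% FBS and left to attach for 24 h at 37 °C, 5% CO2. They were then exposed for 24 h to 3-fold peptide dilutions starting from 600 μM solutions in quadruplicate. LDH release was read at 450 nm, and CC50 was fitted from dose-response curves.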
# in vitro [10] = conditions: human; remark: listed apart in the source
# Description: Cytotoxicity of the synthesised peptides was evaluated by comparison with commercially available colistin (polymyxin E), polymyxin B (Sigma chemical Co., St. Louis, Mo., U.S.A.) and synthetic octapeptin C4 by conducting lactate dehydrogenase (LDH) assay. CC50 values calculated based on curve fitting of dose dependent inhibition of cell growth represented the cytotoxicity of the peptide. Human kidney 2 (HK2) cells were seeded as 2000 cells per well in a 384 well cell culture plate in a final volume of 20 μL in DMEM/F12 medium (Invitrogen #11330057), in which 10% of FBS was added. Cells were incubated for 24 hours at 37° C., 5% CO2 to allow cells to attach to the plates. Similar conditions were employed for HEK293 and HepG2 cytotoxicity assays.
# Cytotoxicity to HEK293 and HepG2 cells was determined using the resazurin assay (McMillian, M. K.; Li, L.; Parker, J. B.; Patel, L.; Zhong, Z.; Gunnett, J. W.; Powers, W. J.; Johnson, M. D. An improved resazurin-based cytotoxicity assay for hepatic cells; Cell Biol. Toxicol. 2002, 18, 157-173; O'Brien, J.; Wilson, I.; Orton, T.; Pognan, F. Investigation of the Alamar Blue (resazurin) fluorescent dye for the assessment of mammalian cell cytotoxicity. Eur. J. Biochem. 2000, 267, 5421-5426). In brief, HEK293 and HepG2 cells were seeded at 4000 cells/well in black-wall, clear-bottom 384-well plates (Corning, Australia) and incubated for 24 h at 37° C., 5% CO2. Compounds were then added into each well. After 24 h incubation, 5 μM resazurin was added per well and incubated at 37° C. for 2 h. Fluorescence intensity was then read using a Polarstar Omega with excitation/emission 560/590. The data was then analyzed using GraphPad Prism 6 software. CC50 values were determined using GraphPad Prism 6 software (Inc. La Jolla, Calif.).
Structure (SMILES),CC50 at 24 h (in vitro [1]) [µM],"MIC K. pneumoniae ATCC 700603, MDR [2] [µg/mL]",MIC K. pneumoniae ATCC 13883 (K. pneumoniae ATCC 13883) [µg/mL],MIC E. coli ATCC 25922 (E. coli ATCC 25922) [µg/mL],"MIC K. pneumoniae ATCC BAA-2146, NDM-1 pos [3] [µg/mL]",MIC K. pneumoniae GN_102 PmxR ([4]; GN 102 PmxR) [µg/mL],"MIC S. aureus ATCC 25923, MSSA [5] [µg/mL]","MIC P. aeruginosa GN_043, PmxR ([6]; P. aeruginosa GN_043, PmxR) [µg/mL]",MIC P. aeruginosa ATCC 27853 (P. aeruginosa ATCC 27853) [µg/mL],MIC A. baumannii GN_093 PmxR (A. baumannii GN_093 PmxR; GN 093 PmxR) [µg/mL],"MIC P. aeruginosa GN_105, PmxR ([7]; GN 105, PmxR) [µg/mL]","MIC K. pneumoniae GN_106, PmxR ([8]; GN 106, PmxR) [µg/mL]",MIC A. baumannii ATCC 19606 (A. baumannii ATCC 19606) [µg/mL],CC50 at 24 h (in vitro [9]) [µM],CC50 at 24 h (in vitro [10]) [µM],other results
"CCCCCCC[C@@H](O)CC(=O)N[C@@H](CCN)C(=O)N[C@H]1CCNC(=O)[C@H](CC(C)C)NC(=O)[C@H](CCN)NC(=O)[C@H](CCN)NC(=O)[C@H](C)NC(=O)[C@@H](Cc2ccccc2)NC(=O)[C@H](CCN)NC1=O [compound 5563, 3(R)OH-nC9CO-L-Dab-cyc[L-Dab-L-Dab-D-Phe-L-Ala-L-Dab-L-Dab-L-Leu]] ({Decanoyl(3R-OH)}-[Dab][Dab][Dab][dF]A[Dab][Dab]L; lactam 2-C)",> 300,16,>32,32,16,32,>32,>32,2,>32,32,32,>32,158,> 300,–
"CCC(C)CCCCC(O)CC(=O)N[C@@H](CCN)C(=O)N[C@H]1CCNC(=O)[C@H](CC(C)C)NC(=O)[C@H](CCN)NC(=O)[C@H](CCN)NC(=O)[C@H](CC(C)C)NC(=O)[C@@H](Cc2ccccc2)NC(=O)[C@H](CCN)NC1=O (stereo partly drawn) [compound 5567, nC7(8-Me)CH(OH)CH2CO-L-Dab-cyc[L-Dab-L-Dab-D-Phe-L-Leu-L-Dab-L-Dab-L-Leu]] (X7-[Dab][Dab][Dab][dF]L[Dab][Dab]L; lactam 2-C)",292,–,–,–,–,–,–,–,–,–,–,–,–,54,150,"MIC, K. pneumoniae ATCC 700603, MDR ([2]; Table 6): 8 µg/mL; MIC, K. pneumoniae ATCC 13883 (K. pneumoniae ATCC 13883; Table 6): 8 µg/mL; MIC, E. coli ATCC 25922 (E. coli ATCC 25922; Table 6): 8 µg/mL; MIC, K. pneumoniae ATCC BAA-2146, NDM-1 pos ([3]; Table 6): 8 µg/mL; MIC K. pneumoniae GN_102 PmxR ([4]; Table 6, polymyxin-resistant): 8 µg/mL; MIC, S. aureus ATCC 25923, MSSA ([5]; Table 6): 32 µg/mL; MIC P. aeruginosa GN_043, PmxR ([6]; Table 6, polymyxin-resistant): 2 µg/mL; MIC, P. aeruginosa ATCC 27853 (P. aeruginosa ATCC 27853; Table 6): 2 µg/mL; MIC A. baumannii GN_093 PmxR (A. baumannii GN_093 PmxR; Table 6, polymyxin-resistant): 16 µg/mL; MIC P. aeruginosa GN_105, PmxR ([7]; Table 6, polymyxin-resistant): 2 µg/mL; MIC K. pneumoniae GN_106, PmxR ([8]; Table 6, polymyxin-resistant): 4 µg/mL; MIC, A. baumannii ATCC 19606 (A. baumannii ATCC 19606; Table 6): 8 µg/mL"
"CCC(C)CCC(O)CC(=O)N[C@H](CCN)C(=O)N[C@H]1CCNC(=O)[C@H](CC(C)C)NC(=O)[C@H](CCN)NC(=O)[C@H](CCN)NC(=O)[C@H](Cc2ccccc2)NC(=O)[C@H](CC(C)C)NC(=O)[C@H](CCN)NC1=O (stereo partly drawn) [compound 6371, nC5(6-Me)CH(OH)CH2CO-D-Dab-cyc[L-Dab-L-Dab-L-Leu-L-Phe-L-Dab-L-Dab-L-Leu]] (X2-[dDab][Dab][Dab]LF[Dab][Dab]L; lactam 2-C)",> 300,>32,>32,>32,>32,>32,>32,>32,32,>32,>32,>32,>32,> 300,> 300,–
"CCCCCCCN1CCC(C(=O)N[C@H](CCN)C(=O)N[C@H]2CCNC(=O)[C@H](CC(C)C)NC(=O)[C@H](CCN)NC(=O)[C@H](CCN)NC(=O)[C@H](Cc3ccccc3)NC(=O)[C@@H](CC(C)C)NC(=O)[C@H](CCN)NC2=O)CC1 [compound 6516, 1-heptylpiperidine-4-carboxylic acid-D-Dab-cyc[L-Dab-L-Dab-D-Leu-L-Phe-L-Dab-L-Dab-L-Leu]] (X1-[dDab][Dab][Dab][dL]F[Dab][Dab]L; lactam 2-C)",> 300,>32,>32,16,32,–,32,0.5,1,–,2,–,>32,223,> 300,–
